The values that follow come from article PMC7580722, “Design of new disubstituted imidazo[1,2-b]pyridazine derivatives as selective Haspin inhibitors. Synthesis, binding mode and anticancer biological evaluation” (Journal of Enzyme Inhibition and Medicinal Chemistry, 2020).

One data set has as its system RPE-1. The experiment in a line: Cell viability, monolayer (2D), MTS assay. The data set is classed as cell-based. To be noted: Homo sapiens, 48 h. For orientation: Formazan colour is commonly taken as a measure of viable cells.
In a further data set the test system is U-2 OS spheroids. The experiment in a line: Spheroid (3D) viability, CellTiter-Glo. The format is cell-based, human. To be noted: 5 µM, Figure 4(B). In general terms: In ATP-based viability assays light output follows the ATP content of the culture.
In data set [1] the test system is Haspin activity (H3T3ph) in U-2 OS cells. Put plainly: In-cell Haspin activity, H3T3ph immunofluorescence. The format is cell-based, human. To be noted: 24 h.
A further data set deals with HsCdk9/Cyclin T. Put plainly: CDK9 kinase assay. The data set is classed as biochemical, human. To be noted: SI = IC50 kinase X/IC50 Haspin. Here is the method:
Values are IC50 expressed in µM and calculated from dose–response curves (each point on the curves was performed in triplicate). Selectivity indexes (SI; in brackets) are calculated as follows: SI = IC50 kinase X/IC50 Haspin. ND: not determined. *IC50 values obtained using the ADP-Glo methodology (see Experimental section, Supplementary Material). […]
The reaction was carried out as described in general procedure A using 4 (0.150 g, 0.58 mmol, 1 equiv.), 2-aminopyrimidine-5-boronic acid (0.122 g, 0.88 mmol, 1.5 equiv.) and Cs2CO3 (0.575 g, 1.75 mmol, 3 equiv.). The crude mixture was purified by flash chromatography on silica gel (EtOAc) to afford 28 (0.115 g, 73 %) as a yellow […]
The reaction was carried out as described in general procedure A using 4 (0.100 g, 0.39 mmol, 1 equiv.), 1-naphthaleneboronic acid (0.083g, 0.47 mmol, 1.2 equiv.) and Cs2CO3 (0.381 g, 1.17 mmol, 3 equiv.). […]
Recombinant protein kinases were expressed and purified from E. coli (HsHaspin kinase domain aa470-798, HsCdk5/p25, RnDYRK1A kinase domain aa1-499, HsPIM1, MmCLK1) or baculovirus/Sf9 cells (HsCdk2/Cyclin A, HsCdk9/Cyclin T). […] The wet filter-bound radioactivity was determined in the presence of 20 µl scintillation fluid (GE healthcare) with a TopCount® Scintillation and Luminescence Counter (PerkinElmer). IC50 values were calculated from dose-response curves […]

The next data set concerns U-2 OS cells. The experiment in a line: Scratch wound cell migration assay (IncuCyte). To be noted: 0.6 µM, 0.5% FBS, normalised against DMSO control (100%). The data set is classed as cell-based, human.
In a further data set the target is T1, HsCDK1 (Homo sapiens, UniProt P06493).
T1 construct: purchased ProQinase
T1 sequence (P06493 whole entry): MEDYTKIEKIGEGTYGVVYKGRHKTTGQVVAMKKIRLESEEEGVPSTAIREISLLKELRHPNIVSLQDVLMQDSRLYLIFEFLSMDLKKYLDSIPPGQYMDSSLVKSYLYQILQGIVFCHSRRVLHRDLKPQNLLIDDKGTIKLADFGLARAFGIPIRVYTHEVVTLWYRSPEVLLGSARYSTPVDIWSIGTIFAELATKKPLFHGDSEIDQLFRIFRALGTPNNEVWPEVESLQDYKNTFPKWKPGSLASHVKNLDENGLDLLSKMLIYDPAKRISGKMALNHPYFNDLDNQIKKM
T1 sequence (P14635 whole entry partner): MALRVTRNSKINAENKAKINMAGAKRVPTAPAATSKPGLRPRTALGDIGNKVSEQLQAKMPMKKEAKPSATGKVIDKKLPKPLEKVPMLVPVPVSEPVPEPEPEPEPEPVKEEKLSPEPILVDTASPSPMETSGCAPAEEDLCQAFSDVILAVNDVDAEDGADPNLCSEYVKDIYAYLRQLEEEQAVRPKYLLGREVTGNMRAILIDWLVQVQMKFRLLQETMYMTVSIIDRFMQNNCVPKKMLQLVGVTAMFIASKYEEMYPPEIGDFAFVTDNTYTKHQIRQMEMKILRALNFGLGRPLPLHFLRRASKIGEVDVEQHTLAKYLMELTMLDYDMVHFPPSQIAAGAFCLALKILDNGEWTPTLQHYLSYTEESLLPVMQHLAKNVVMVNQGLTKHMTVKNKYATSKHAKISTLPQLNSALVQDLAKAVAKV
Put plainly: CDK1 kinase assay. The data set is classed as biochemical. As to the method:
We therefore tested our compounds on two obvious candidates, HsCDK1 and HsPLK1 (Polo-like_kinase 1) both required for mitotic entry[50]
Values are IC50 expressed in µM and calculated from dose–response curves (each point from the curves was performed in duplicate). NR: not relevant. […]
Recombinant protein kinases were expressed and purified from E. coli (HsHaspin kinase domain aa470-798, HsCdk5/p25, RnDYRK1A kinase domain aa1-499, HsPIM1, MmCLK1) or baculovirus/Sf9 cells (HsCdk2/Cyclin A, HsCdk9/Cyclin T). Native SscCK1δ /ε and SscGSK3α/β were purified from pig brain whereas HsPlk1, HsCdk1 and HsAurora B were purchased from ProQinase and SignalChem respectively. Kinase assays were performed in specific buffers and substrates for each kinase tested in the presence of 15 µM [γ-33P] ATP (3,000 Ci/mmol, 10 mCi/ml; PerkinElmer) in a final volume of 30 µl as previously reported 51. After 30 min incubation at 30°C, the reaction mix was spotted onto GE healthcare P81 phosphocellulose paper using a FilterMate Harvester (PerkinElmer), and the filter was extensively washed with a 1% phosphoric acid solution. The wet filter-bound radioactivity was determined in the presence of 20 µl scintillation fluid (GE healthcare) with a TopCount® Scintillation and Luminescence Counter (PerkinElmer). IC50 values were calculated from dose-response curves

Another data set has as its system SH-SY5Y. The experiment in a line: Cell viability, monolayer (2D), MTS assay. To be noted: Homo sapiens, 48 h. The format is cell-based.

Structures are written as SMILES. Bounds are passed on as bounds.

By EC50 is commonly meant the concentration that produces a half-maximal response. The viability is a read-out of living cells in per cent, often relative to untreated cells. Broadly, the inhibition is the drop in the measured response relative to a control, in per cent. In general, IC50 refers to the point on the concentration scale where inhibition reaches its midpoint. Turning to `c1cc2[nH]ncc2cc1-c1cnc2ccc(OC[C@@H]3CNCCO3)nn12` [Compound 21], the EC50 is 4.6 µM with RPE-1 and greater than 10 µM in the data set on SH-SY5Y. Further, the “U-2 OS spheroid remaining viability” value in the data set on U-2 OS spheroids (2 days) is “no effects”. For the same compound, in the data set with U-2 OS spheroids (Homo sapiens, U2OS, 240 h, 10 days, read-out: U-2 OS spheroid viability), the viability at 5 µM worked out at 69%. Further, the “H3T3ph signal remaining in prometaphase cells (% of ctrl)” value in data set [1] (0.5 µM) came to 2.4%. For the same compound, in data set [1] (Homo sapiens, U2OS, 0.05 µM, read-out: inhibition of cellular Haspin activity), the inhibition at 0.05 µM was greater than 80%. Moreover, the “selectivity for CDK9 vs Haspin” value in the data set on HsCdk9/Cyclin T was determined as 28 fold. The “normalised wound closure after 24 h” value in the data set on U-2 OS cells is on record as “around 100%”. At HsCDK1 (SI = IC50 CDK1/IC50 Haspin), the “SI CDK1/Haspin” value came out at 392. In addition, the IC50 on HsCDK1 (Table 4, read-out: IC50 HsCDK1) amounted to 2.35 µM.
